Assay results published in article PMC5733478, “A Non-imaging High Throughput Approach to Chemical Library Screening at the Unmodified Adenosine-A3 Receptor in Living Cells” (Frontiers in Pharmacology, 2017).
Structures can show the parent of a compound that is named as a salt.

Target: T1, human A3AR (Homo sapiens, UniProt P0DMS8)
T1 construct: expressed in transfected cells
T1 sequence (P0DMS8 1-318): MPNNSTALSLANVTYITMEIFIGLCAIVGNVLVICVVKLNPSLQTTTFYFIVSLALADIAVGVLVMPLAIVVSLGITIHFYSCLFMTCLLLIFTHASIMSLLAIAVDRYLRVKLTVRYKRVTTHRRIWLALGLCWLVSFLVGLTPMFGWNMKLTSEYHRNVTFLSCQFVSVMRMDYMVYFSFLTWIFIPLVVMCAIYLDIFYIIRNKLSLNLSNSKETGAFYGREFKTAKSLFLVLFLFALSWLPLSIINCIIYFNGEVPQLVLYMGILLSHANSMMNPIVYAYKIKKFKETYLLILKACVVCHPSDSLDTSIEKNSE
Assay: LOPAC library primary screen: single concentration (10 μM) inhibition of 25 nM CA200645 binding, PHERAstar FS
Conditions: not given

Point of comparison: Cc1cc(O)c2c(c1)C(=O)c1cc(O)cc(O)c1C2=O [Emodin], “% 25 nM CA200645 binding” value 52.8± 4.4%. Against it:
- O=C1CN(/N=C/c2ccc(-c3ccc([N+](=O)[O-])cc3)o2)C(O)=N1 [Dantrolene sodium] — higher, 94.8 ± 9.5%
- O=c1ccc2ccc(O)c(O)c2o1 [Daphnetin] — higher, 102.0 ± 13.1%
- N=C(N)N1CCc2ccccc2C1 [Debrisoquin sulfate] — higher, 81.0 ± 16.3%
- C[N+](C)(C)CCCCCCCCCC[N+](C)(C)C.[Br-].[Br-] [Decamethonium dibromide] — higher, 106.4 ± 21.3%
- CN(C)[C@@H]1C(O)=C(C(N)=O)C(=O)[C@@]2(O)C(O)=C3C(=O)c4c(O)ccc(Cl)c4[C@@H](O)[C@H]3C[C@@H]12 [Demeclocycline hydrochloride] — higher, 98.1 ± 10.5%
- CN(N=O)c1cc(O)ccc1O [Dephostatin] — within error, 75.4 ± 19.6%
- Cc1cc(N)c2ccccc2[n+]1CCCCCCCCCC[n+]1c(C)cc(N)c2ccccc21.[Cl-].[Cl-] [Dequalinium chloride hydrate] — higher, 86.1 ± 10.0%
- O=c1c2ccccc2[nH]c(=S)n1CCN1CCC(=C(c2ccc(F)cc2)c2ccc(F)cc2)CC1 [Diacylglycerol Kinase Inhibitor II] — within error, 51.5 ± 9.4%
- CC1=NS(=O)(=O)c2cc(Cl)ccc2N1 [Diazoxide] — higher, 101.5 ± 12.2%
- O=C(O)Cc1ccccc1Nc1c(Cl)cccc1Cl [Diclofenac sodium] — higher, 100.0 ± 12.4%
- O=C(O)CN(CCN(CC(=O)O)CC(=O)O)CCN(CC(=O)O)CC(=O)O [Diethylenetriaminepentaacetic acid] — higher, 99.2 ± 10.9%
- Br.CO[C@H]1CC=C2CCN3CCC4=C(CC(=O)OC4)[C@]23C1 [Dihydro-beta-erythroidine hydrobromide] — higher, 94.0 ± 5.4%
- COc1cc(CNC(=O)CCCCCCC(C)C)ccc1O [Dihydrocapsaicin] — higher, 86.7 ± 9.6%
- CN1C[C@H](C(=O)N[C@]2(C)O[C@@]3(O)[C@@H]4CCCN4C(=O)[C@H](Cc4ccccc4)N3C2=O)C[C@@H]2c3cccc4[nH]cc(c34)C[C@H]21 [Dihydroergotamine methanesulfonate] — higher, 99.2 ± 11.1%
- CC(C)[C@H]1CN[C@H](C(=O)O)[C@H]1CC(=O)O [Dihydrokainic acid] — higher, 92.4 ± 30.0%
- C[C@@H]1O[C@@H](O[C@H]2C[C@@H](O)[C@]3(CO)[C@H]4[C@H](O)C[C@]5(C)[C@@H]([C@@H]6COC(=O)C6)CC[C@]5(O)[C@@H]4CC[C@]3(O)C2)[C@H](O)[C@H](O)[C@H]1O [Dihydroouabain] — higher, 102.4 ± 11.9%
- COc1ccc([C@@H]2Sc3ccccc3N(CCN(C)C)C(=O)[C@@H]2OC(C)=O)cc1 [Diltiazem hydrochloride] — higher, 97.4 ± 8.9%
- c1ccc2c(c1)[I+]c1ccccc1-2 [Diphenyleneiodonium chloride] — higher, 92.7 ± 5.6%
- CCCN(CCC)CCc1ccc(O)c(O)c1 [Dipropyldopamine hydrobromide] — higher, 101.8 ± 8.0%
- OCCN(CCO)c1nc(N2CCCCC2)c2nc(N(CCO)CCO)nc(N3CCCCC3)c2n1 [Dipyridamole] — higher, 78.8 ± 14.8%
- CC(C)N(CCC(C(N)=O)(c1ccccc1)c1ccccn1)C(C)C (stereo not drawn) [Disopyramide phosphate] — higher, 98.5 ± 7.6%
- CC(C)N(CCC(C(N)=O)(c1ccccc1)c1ccccn1)C(C)C (stereo not drawn) [Disopyramide] — within error, 78.9 ± 27.0%
- CC(CCc1ccc(O)cc1)NCCc1ccc(O)c(O)c1 (stereo not drawn) [Dobutamine hydrochloride] — higher, 101.9 ± 15.9%
- O=c1[nH]c2ccccc2n1CCCN1CCC(n2c(=O)[nH]c3cc(Cl)ccc32)CC1 [Domperidone] — higher, 99.6 ± 10.5%
- NCCc1ccc(O)c(O)c1 [Dopamine hydrochloride] — higher, 93.0 ± 11.1%
- CN(C)CCC=C1c2ccccc2COc2ccccc21 [Doxepin hydrochloride] — higher, 110.0 ± 13.2%
- CN(C)CCOC(C)(c1ccccc1)c1ccccn1 (stereo not drawn) [Doxylamine succinate] — higher, 107.4 ± 0.7%
- O=C(CCCN1CC=C(n2c(=O)[nH]c3ccccc32)CC1)c1ccc(F)cc1 [Droperidol] — higher, 101.2 ± 18.5%
- Cc1cc(Cl)ccc1OCCCC(=O)NO [Droxinostat] — higher, 96.3 ± 1.9%
- CCOC(=O)C1=C(O)C(=O)N(Cc2ccccc2)C1 [EBPC] — higher, 98.2 ± 13.5%
- CCCCCCCCCCCCCCCCCCOCC(COP(=O)([O-])OCC[N+](C)(C)C)OC (stereo not drawn) [ET-18-OCH3] — higher, 80.6 ± 4.5%
- CC[N+](C)(C)c1cccc(O)c1 [Edrophonium chloride] — higher, 88.1 ± 20.0%
- CN1CCC[C@@H]1Cc1c[nH]c2ccc(CCS(=O)(=O)c3ccccc3)cc12 [Eletriptan hydrobromide] — higher, 96.9 ± 5.3%
- Cc1c2ccncc2c(C)c2c1[nH]c1ccccc12 [Ellipticine] — within error, 78.2 ± 23.8%
- CC[C@H]1CN2CCc3cc(OC)c(OC)cc3[C@@H]2C[C@@H]1C[C@H]1NCCc2cc(OC)c(OC)cc21 [Emetine dihydrochloride hydrate] — higher, 102.7 ± 9.1%
- C[C@H](N[C@@H](CCc1ccccc1)C(=O)O)C(=O)N1CCC[C@H]1C(=O)O.O.O [Enalaprilat dihydrate] — higher, 95.6 ± 2.1%
- CSc1ccc(C(=O)c2[nH]c(=O)[nH]c2C)cc1 [Enoximone] — higher, 102.3 ± 5.2%
- CC(C)C[C@H](NC(=O)[C@H](O)[C@H](N)Cc1ccccc1)C(=O)O [Epibestatin hydrochloride] — higher, 102.9 ± 13.0%
- NC1=NCC2c3ccccc3Cc3ccccc3N12 (stereo not drawn) [Epinastine hydrochloride] — higher, 96.6 ± 14.2%
- CCCCc1ncc(/C=C(\Cc2cccs2)C(=O)O)n1Cc1ccc(C(=O)O)cc1 [Eprosartan mesylate] — higher, 97.5 ± 15.0%
- COc1ccc2[n-]c([S@@+]([O-])Cc3ncc(C)c(OC)c3C)nc2c1.COc1ccc2[n-]c([S@@+]([O-])Cc3ncc(C)c(OC)c3C)nc2c1.O.O.[Mg+2] [Esomeprazole magnesium dihydrate] — higher, 81.5 ± 16.8%
- C[C@]12CC[C@@H]3c4ccc(O)cc4CC[C@H]3[C@@H]1CCC2=O [Estrone] — higher, 91.0 ± 8.5%
- CCN(CC)C(C)CN1c2ccccc2Sc2ccccc21 (stereo not drawn) [Ethopropazine hydrochloride] — higher, 108.3 ± 15.2%
- CCC1(C)CC(=O)NC1=O (stereo not drawn) [Ethosuximide] — higher, 88.4 ± 5.5%
- CCc1cccc2c3c([nH]c12)C(CC)(CC(=O)O)OCC3 (stereo not drawn) [Etodolac] — higher, 97.1 ± 13.7%
- COc1ccc(-c2cc(=O)c3c(O)c(OC)c(OC)cc3o2)cc1O [Eupatorin] — within error, 47.2 ± 12.7%
- Clc1ccc(N2CCN(Cc3cc4ccccn4n3)CC2)cc1 [FAUC 213] — higher, 76.8 ± 3.4%
- COC(=O)c1c(C)[nH]c(C)c1C(=O)c1ccccc1Cc1ccccc1 [FPL 64176] — higher, 74.2 ± 6.7%

Same assay, conditions: % of control wells (1% DMSO and 25 nM CA200645); compounds at 10 µM; whole live cells expressing the A3AR; mean ± SD, three experiments in duplicate

For OC(CN1CCC(Cc2ccc(F)cc2)CC1)c1ccc(Cl)cc1 (stereo not drawn) [Eliprodil], the “% 25 nM CA200645 binding” value was 98.8 ± 8.5%.

Same assay, conditions: compounds tested at 10 µM; % of control wells (1% DMSO and 25 nM CA200645); whole live cells expressing the A3AR; mean ± SD, three experiments in duplicate

CCC1(C2=NCCN2)Cc2ccccc2O1 (stereo not drawn) [Efaroxan hydrochloride] was tested, and the “% 25 nM CA200645 binding” value was 95.2 ± 6.3%.
